Results on one compound are retold here after ChEMBL document CHEMBL4130348, “Structure-activity relationship investigation for benzonaphthyridinone derivatives as novel potent Bruton's tyrosine kinase (BTK) irreversible inhibitors” (Eur J Med Chem, 2017).

For this assay, the target named is Tyrosine-protein kinase BTK (Homo sapiens, UniProt Q06187). Briefly: Inhibition of BTK transphosphorylation at Y551 in anti-IgM stimulated human MOLM13 cells at 100 to 1000 nM after 4 hrs by chemiluminescence assay.

Molecules are shown by their SMILES. Calls of active or inactive are those of the source. The rule behind the calls is not given here.

Chain of Tyrosine-protein kinase BTK (Q06187 whole entry): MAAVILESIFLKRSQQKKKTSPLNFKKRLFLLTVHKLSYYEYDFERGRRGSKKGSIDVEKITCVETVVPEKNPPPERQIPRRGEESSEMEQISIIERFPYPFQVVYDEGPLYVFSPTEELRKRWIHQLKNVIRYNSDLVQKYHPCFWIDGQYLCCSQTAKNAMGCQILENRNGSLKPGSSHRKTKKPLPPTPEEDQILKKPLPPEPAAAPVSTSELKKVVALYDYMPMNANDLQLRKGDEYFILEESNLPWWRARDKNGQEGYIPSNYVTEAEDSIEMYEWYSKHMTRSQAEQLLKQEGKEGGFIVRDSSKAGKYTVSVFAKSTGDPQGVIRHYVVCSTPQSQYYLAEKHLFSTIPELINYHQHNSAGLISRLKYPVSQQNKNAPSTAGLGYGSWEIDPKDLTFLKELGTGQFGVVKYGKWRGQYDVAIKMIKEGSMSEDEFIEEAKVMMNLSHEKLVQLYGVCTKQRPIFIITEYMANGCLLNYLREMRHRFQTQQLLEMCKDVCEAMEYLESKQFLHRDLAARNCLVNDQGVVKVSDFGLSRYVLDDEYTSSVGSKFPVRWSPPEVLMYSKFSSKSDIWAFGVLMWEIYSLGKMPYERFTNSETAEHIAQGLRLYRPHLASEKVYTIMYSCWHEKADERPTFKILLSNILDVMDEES

Regarding `C=CC(=O)Nc1cc(-n2c(=O)ccc3cnc4ccc(-n5cccn5)cc4c32)ccc1C`, the inhibition entry is “inactive”.
